From PubChem BioAssay (NCI)
Several values for one entry are separate records, joined by “and”; a condition that tells them apart may be missing. Equal entries are not always repeated.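 All cell lines were grown in 96-well plates and treated with compound for 48 hours. The concentration for 50% growth inhibition is given as GI50. Definition used: TGI = concentration required for complete inhibition of growth.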

Experiments:
Assay in all cases: growth of human tumour cells (NCI), 48 h
UACC-257 melanoma = system: UACC-257 melanoma
MDA-MB-231 breast = system: MDA-MB-231 breast
MCF7 breast = system: MCF7 breast
SNB-75 CNS = system: SNB-75 CNS
MOLT-4 leukemia = system: MOLT-4 leukemia
COLO 205 colon = system: COLO 205 colon
SR leukemia = system: SR leukemia
SF-539 CNS = system: SF-539 CNS
CAKI-1 renal = system: CAKI-1 renal
NCI-H23 lung = system: NCI-H23 lung

Compound | GI50 (UACC-257 melanoma) [µM] | TGI (UACC-257 melanoma) | GI50 (MDA-MB-231 breast) [µM] | TGI (MDA-MB-231 breast) | GI50 (MCF7 breast) [µM] | TGI (MCF7 breast) | GI50 (SNB-75 CNS) [µM] | TGI (SNB-75 CNS) | GI50 (MOLT-4 leukemia) [µM] | TGI (MOLT-4 leukemia) | GI50 (COLO 205 colon) [µM] | TGI (COLO 205 colon) | GI50 (SR leukemia) [µM] | TGI (SR leukemia) [µM] | GI50 (SF-539 CNS) [µM] | TGI (SF-539 CNS) | GI50 (CAKI-1 renal) [µM] | TGI (CAKI-1 renal) | GI50 (NCI-H23 lung) [µM] | TGI (NCI-H23 lung)
C[C@@H](NC(=O)c1ncnc(N)c1Cl)c1ncc(C(=O)Nc2cc(C(F)(F)F)c(Cl)cn2)s1 | 0.478 | 4.77 µM | 5.37 | 41.5 µM | 19.9 | 66.1 µM | 23.1 | 94.4 µM | 23 | 68.7 µM | 0.616 | 24.3 µM | 15.3 | 64.5 | 20.3 | > 78.4 µM | 25.4 | 71.6 µM | 10.8 | 57.9 µM
CCN(CC)c1ccc(C2NC(=O)c3ccccc3N2)cc1 (stereo not drawn) |  | > 100 µM |  | 7.76 µM |  | > 100 µM |  | > 20.3 µM |  | > 100 µM |  | 4.51 µM |  | > 100 |  | 8.68 µM |  | > 26.5 µM |  | > 100 µM
Cc1nc(-c2cnc(NC(C)C)n(C)c2=O)ccc1Oc1ccnc(-c2cnn(C)c2)c1 | 12 | 55.1 µM | 20.5 | > 100 µM | 5.07 | > 100 µM | 12.3 | 47.7 µM | 5.16 | 35.2 µM | 10.6 | 80.7 µM | 2.99 | 29.1 | 7.5 | 46.8 µM | 7.51 | 65.2 µM | 13.3 | > 100 µM
O=C1C=CC(=Nc2cccc3c(N=C4C=CC(=O)O4)cccc23)O1 |  | 55.6 µM |  | > 100 µM |  | > 100 µM |  | > 100 µM |  | 19.8 µM |  | 40.4 µM |  | 48.1 |  | 36.1 µM |  | 35.5 µM |  | > 100 µM
C(=Nc1cnc2ccccc2c1)c1ccc2ccccc2n1 |  | > 100 µM |  | > 100 µM |  | > 100 µM |  | > 100 µM |  | > 100 µM |  | > 100 µM |  | 71.4 |  | > 100 µM |  | > 100 µM |  | > 100 µM
OCc1ccc(N2CCc3cc(F)ccc3C2)cc1Cl | 0.0197 | 0.0723 µM | 12.9 | 26.2 µM | 0.0771 | 13.3 µM | 15.1 | 28.6 µM | 15 | 47.4 µM | 0.0828 | 0.353 µM | 3.29 | 24 | 16.1 | 30.2 µM | 1.34 | 13.6 µM | 12.8 | 30.2 µM
COc1cccc(C2=C(c3cn(C)c4cc(F)ccc34)C(=O)NC2=O)c1 | > 25 | > 25 µM | > 25 | > 25 µM | 7.56 | > 25 µM | 2.42 | > 25 µM | 11.1 | > 25 µM | 10.9 | > 25 µM | 6.72 | > 25 | > 25 | > 25 µM | > 13.4 | > 25 µM | > 25 | > 25 µM
C/C(=N/O)c1ccc2c(c1)/C(=N/O)c1ccccc1-2 | 29.4 | 65.5 µM | 23 | 56.5 µM | 15.3 | 35.8 µM | 17.7 | 44.2 µM | 20.2 | 49.4 µM | 18.1 | 35.6 µM | 12.5 | 31.8 | 21.6 | 50 µM | 20.3 | 44.8 µM | 18.3 | 34.2 µM
NC1=NC(=O)/C(=C/c2ccc3ncccc3c2)S1 | > 25 | > 25 µM | > 25 | > 25 µM | > 12.2 | > 25 µM | > 25 | > 25 µM | > 25 | > 25 µM | > 25 | > 25 µM | 7.11 | > 25 | > 25 | > 25 µM | > 25 | > 25 µM | > 25 | > 25 µM
COc1ccc(-c2[nH]nc(N)c2-c2cc(OC)c3c(c2)OCO3)cc1 | 5.77 | > 100 µM | 5.5 | > 100 µM | 3.83 | > 100 µM | 3.25 | > 100 µM | 3.73 | 37.5 µM | 4.76 | 20 µM | 1.97 | 18.1 | 12.8 | 48.2 µM | 3.98 | > 100 µM | 3.87 | > 100 µM
NC(=O)CC1(O)C=C(Br)C(=O)C(Br)=C1 | 1.9 | 4.06 µM | 6.85 | 20.2 µM | 3.3 | 15.3 µM | 12.8 | 26.2 µM | 2.29 | 5.35 µM | 1.25 | 2.63 µM | 1.7 | 14.2 | 2.95 | 9.15 µM | 0.94 | 2.96 µM | 8.99 | 24.6 µM
CCCCCCCCCC(CCCC(O)CC(=O)O)OC1OC(COC2OC(C)C(OC(C)=O)C(O)C2O)C(O)C(O)C1OC1OC(CO)C(O)C(O)C1OC1OC(C)C(OC(=O)CC(C)C)C(O)C1O (stereo not drawn) | > 35 | > 35 µM | > 35 | > 35 µM | > 35 | > 35 µM | > 35 | > 35 µM | > 35 | > 35 µM | > 35 | > 35 µM | > 35 | > 35 | > 35 | > 35 µM | > 35 | > 35 µM | > 35 | > 35 µM
COc1ccc2nc3cc([N+](=O)[O-])ccc3c(NNc3ccccc3)c2c1 | 17.3 | 51.5 µM and > 100 µM | 5.69 | 30 µM and 54.2 µM | 4.34 | 19.6 µM and 45.4 µM | 15.6 | 35.7 µM and > 100 µM | 12.5 | 65.8 µM and 74.4 µM | 17.1 | 37.5 µM and 29.5 µM |  | 61.8 | 11.7 | 26.4 µM and 75 µM |  | 35.1 µM and > 100 µM | 12.1 | 28.1 µM and > 90.5 µM
